Assay: PK and tissue distribution of GC-Mel/Mel at various intervals after CAB 1.11i in TLS174T xenograft mice
Type: in vivo, Ncr athymic nude mice
Method: We assessed the tumor retention characteristics of CAB1.11i by monitoring the formation of Mel from the administration of GC-Mel. Dosing solutions were prepared on the day of dosing, within 60 minutes of administration.
The concentration of the formulation of GC-Mel in bicarbonate/sucrose was based on average […] weight, the desired volume of administration and a dose level of 150 mg/kg. GC-Mel was weighed out and, based on this weight, the appropriate amount of sodium bicarbonate to neutralize all 3 equivalents of the three carboxylic acid sites of GC-Mel was determined. Vehicle was prepared in the required volume by adding the precalculated sodium bicarbonate solution in 5% aqueous sucrose. Vehicle was prechilled at 4° C. Cold vehicle was added to the GC-Mel powder and the mixture was vortexed and sonicated to achieve speedy dissolution.
The animals were be implanted subcutaneously on the flank with 2×10^6 TLS174T cells, a human colorectal tumor line, in 100 μl of phosphate buffered saline. Beginning approximately one week after tumor cell implant, tumors were measured every 3 to 4 days. When the tumors reached approximately 100-250 mm^3, 156 animals were selected based on tumor size and randomized into 7 groups, resulting in a non-significant difference in the mean tumor size between groups at the start of the experiment.
Mice were warmed with a heating lamp and heating pad, placed in a restrainer and the test compounds were administered by bolus intravenous injection via the tail vein. For the blood sampling, all mice were anesthetized by isoflurane inhalation at the time of sample collection. Blood was collected by cardiac puncture into tubes containing EDTA and placed on ice. Tubes were centrifuged at 4000 RPM for two minutes. The plasma fraction was removed into a pre-labeled microfuge tube and placed on dry ice or liquid nitrogen. Sample concentrations were determined.
Tissue samples were rinsed 1× in phosphate buffered saline to remove blood. The samples were snap frozen using liquid nitrogen or dry ice. Tissue samples were stored at −70° C. prior to analysis. […]

## N[C@@H](Cc1ccc(N(CCCl)CCCl)cc1)C(=O)O [Mel, Melphalan]
GC-Mel 150 mg/kg given 96 hrs after CAB 1.11i 1 mg/kg
  plasma Mel level: decreased to near background (concomitant) levels
With increased interval between CAB 1.11i and GC-Mel doses, FIG. 17
  plasma and kidney exposure to Mel (AUC): decreased
With increasing interval, FIG. 18
  systemic melphalan exposure (AUC): decreased

— patent US8728470B2, “CAB molecules” (Danisco US Inc., priority 2004, dated 2014)
